Test [1] has as its system Staphilococcus.aureus A170. The settings on record: single peptide; MIC100, MH broth, about 10^6 CFU/ml, 37°C 20 h, absorbance 600 nm, triplicate.
For test [2], the system named is Staphilococcus aureus 007. The settings on record: 20 h.
In a further test the test system is Escherichian coli. The settings on record: 20 h.
Test [3] deals with Staphilococcus .aureus A172. As to conditions: 20 h.
For test [4], the system named is Salmonella enterica serovar Paratyphi. The test is described as follows: Antibacterial activity, MIC100 broth dilution. The format is cell-based. The settings on record: single peptide; MIC100, MH broth, about 10^6 CFU/ml, 37°C 20 h, absorbance 600 nm, triplicate.
In the next test the test system is Listeria monocytogenes. The settings on record: 20 h.
The next test deals with gram negative bacteria. As to conditions: for antimicrobial activity against gram negative bacteria: in words, data not shown.
In another test the test system is gram positive bacteria. The test is described as follows: Antibacterial activity, summary for gram positive bacteria. Format: cell-based. The settings on record: for antimicrobial activity against gram positive bacteria: in words, approximately to the same extent as temporin A, data not shown. The text has this: The study included the following species: Staphylococcus aureus (isolate A170, A172, 007), Listeria monocytogenes, Salmonella enterica serovar Paratyphi, Salmonella enterica serovar Typhimurium, Escherichia coli. Isolates were obtained from patients hospitalized at the Medical School of the University of Naples. Specimen were confirmed by PCR assay of the genes sea (S. aureus), MonoA (L. monocytogenes), abe (S. enterica serovar Paratyphi), FliC (S. enterica serovar Typhimurium), sat (E. coli) [20]–[23]. Bacteria were grown at 37°C in TSB medium (S. aureus and L. monocytogenes) or LB medium (the remaining bacterial species) (Difco, Becton Dickinson, Sparks, MD), harvested while in exponential phase (OD600 nm; 0-6-0.8), centrifuged (8×10^3 g for 10 min), washed with saline (0.15 M NaCl) and resuspended in saline (10^6–10^7 CFU/ml).
Bacteria were grown at 37°C in TSB (S. aureus and L. monocytogenes) or in LB medium (the remaining bacterial species), harvested while in exponential phase (OD600 nm; 0-6-0.8), centrifuged (8×10^3 g for 10 min), washed with saline, resuspended in Muller Hinton (MH) broth at the concentration of approximately 10^6 CFU/ml and distributed, in triplicate, into 96 well plates (60 µl/well), mixed with twofold dilutions of the antimicrobial (TA: 5–100 µg, 40 µl/well; TB-YK: 4–100 µg, 40 µl/well; TA 5 µg+TB-YK 8 µg, 40 µl/well and incubated at 37°C for 20 h. The minimal concentration of the antimicrobial at which 100% inhibition of growth was observed (MIC100) was determined by measuring the absorbance at 600 nm (Biorad microplate reader model 680, Hercules, CA). The antibacterial activity was measured by spotting an aliquot (10 µl) of each well on TSA or LB agar and counting the CFU. A potential synergism between temporins was evaluated by adding combinations of two temporins in a serial twofold dilutions (TA: 5–100 µg;TB-YK: 4–100 µg; 40 µl/well) to wells containing 10^5 CFU/well in 60 µl. The presence of synergism was established as described.

Data on three substances can be found in article PMC2747021, “Synergistic Antibacterial and Anti-Inflammatory Activity of Temporin A and Modified Temporin B In Vivo” (PLoS ONE, 2009).

No end group written: not given here.

As to FLPLIGRVLSGIL-NH2 [TA, temporin A], the minimum inhibitory concentration (MIC) worked out at 10 µg/mL in test [1]; 10 µg/mL in test [2]; 125 µg/mL against Escherichian coli; 20 µg/mL in test [3]; 400 µg/mL in test [4]; 30 µg/mL with Listeria monocytogenes. Further, the minimal inhibitory concentration (MIC) in the test on gram negative bacteria (20 h) lay within 125 to 400 µg/mL; with gram positive bacteria (range over the gram positive bacteria tested) it was 10 to 30 µg/mL.
As to “H-LLPI VGNLLKSLL- NH2 [TB, temporin B, synthetic temporin B in its native form]”, the “antimicrobial activity against gram negative bacteria” value with gram negative bacteria was “totally inactive”. For the same substance, the “antimicrobial activity against gram positive bacteria” value with gram positive bacteria was “active”.
As to “H-YLLPI VGNLLKSLL- NH2 [TB-Y, temporin B with one extra tyrosine residue at the N-terminus]”, the “antimicrobial activity against gram negative bacteria” value in the test with gram negative bacteria was “totally inactive”. The “antimicrobial activity against gram positive bacteria” value with gram positive bacteria is “active”.
